Test results taken from PubChem BioAssay (NCI).
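The compound was tested at five concentrations on cells cultured in 96-well plates, with a 48-hour exposure period. TGI: total growth inhibition.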

What was measured:
Test in all cases: inhibition of tumour cell growth, NCI panel, 48 h
K-562 leukemia = test system: K-562 leukemia
A498 renal = test system: A498 renal
BT-549 breast = test system: BT-549 breast
KM12 colon = test system: KM12 colon
OVCAR-4 ovarian = test system: OVCAR-4 ovarian
MDA-MB-231 breast = test system: MDA-MB-231 breast
786-0 renal = test system: 786-0 renal
A549 NSCLC = test system: A549 NSCLC
PC-3 prostate = test system: PC-3 prostate
U251 CNS = test system: U251 CNS
SK-MEL-2 melanoma = test system: SK-MEL-2 melanoma
HT29 colon = test system: HT29 colon
OVCAR-3 ovarian = test system: OVCAR-3 ovarian

SMILES	TGI (K-562 leukemia) [µM]	TGI (A498 renal) [µM]	TGI (BT-549 breast) [µM]	TGI (KM12 colon) [µM]	TGI (OVCAR-4 ovarian) [µM]	TGI (MDA-MB-231 breast) [µM]	TGI (786-0 renal) [µM]	TGI (A549 NSCLC) [µM]	TGI (PC-3 prostate) [µM]	TGI (U251 CNS) [µM]	TGI (SK-MEL-2 melanoma) [µM]	TGI (HT29 colon) [µM]	TGI (OVCAR-3 ovarian) [µM]
Cc1cc(C)cc(C(=N)c2ccccc2Cc2cccc3ccccc23)c1	48.5	87.3	> 100	24	33.7	> 100	31.8	42.4	> 100	> 100	> 100	24.5	32.9
CCN(CC)c1ccc2cc(-c3nnc(-c4ccccc4)o3)c(=O)oc2c1	> 100	> 100	> 100	> 100	> 100	> 77.9	> 82.1	> 100	> 100	> 100	> 87.2	> 100	37.1
N#CC(NNC(=O)Cc1ccccc1)c1ccccc1O (stereo not given)	> 100	> 80.3	> 100	> 100	> 100	> 72	72.5	> 90.4	> 100	> 92	> 100	> 92.6	> 43.6
COc1ccc(CCNC2=CC(=O)c3ncccc3C2=O)cc1OC	8.28	3.39	2.82	> 75.2	16.7	3.72	21.2	2.51	23.4	14	6.73	4.73	5.12
CCOC(=O)C(N)CSC(=O)NC (stereo not given)	284	594	346	460	481	340	201	836	455	347	276	399	290
COc1ccc2c(c1)CCc1c-2[nH]c2ccc(OC)cc12	> 100	> 100	> 100	> 100	> 100	> 100	> 100	> 100	> 100	> 100	> 100	> 100	> 100
Cc1cccc(/C=N/NC(=S)NCCc2ccccn2)n1	> 100	87.5	> 100	> 100	> 100	> 100	> 100	> 100	> 100	92.1	> 100	> 100	> 100
CN(Nc1cc(=O)[nH]c(=O)[nH]1)c1ccccc1	> 100	> 100	> 100	> 100	> 100	> 100	> 100	> 100	> 100	> 100	> 100	> 100	> 100
CC(=O)c1csc2c1C(=O)c1scc(C(C)=O)c1C2=O	4.35	2.93	3.18	3.53	1.65	1.43	4.12	4.19	7.49	2.9	3.73	4.61	0.646
CC1(C)OCC2OC3(c4nc(C#N)c(N)o4)OC(C)(C)OC3C2O1 (stereo not given)	> 100	> 100	> 100	> 100	> 100	> 100	> 100	> 100	> 100	> 100	> 100	> 100	> 100
O=C(O)c1ccc(NNc2cc(=O)[nH]c(=O)[nH]2)cc1	> 100	> 100	> 100	> 100	> 100	> 100	> 100	> 100	83.7	> 100	> 100	> 100	> 100
CC1=C(Br)C(Br)=C(C)S1=O	> 100	96.5	40.4	36.2	> 100	61.5	55.9	79.8	48.8	26	32.9	45.4	23.9
C[C@H]1[C@H](C)CC[C@]2(C)CC[C@]3(C)C(=C[C@@H](O)[C@@H]4[C@@]5(C)[C@H](O)[C@@H](O)[C@H](O)C(C)(C)[C@@H]5CC[C@]43C)[C@H]12	> 100	> 100	> 100	> 100	–	> 100	> 100	> 100	> 100	> 100	> 100	> 100	> 100
COc1cccc(CCn2c(N)c(-c3ccccc3)c3ccc([N+](=O)[O-])cc3c2=O)c1	21	5.34	4.3	16	–	29.6	19.4	42	> 79	36.5	48.4	27.4	6.51
C=CCN1C[C@H](C)N([C@H](c2ccc(C(=O)N(CC)CCO)cc2)c2cccc(OC)c2)C[C@H]1C	–	> 100	> 100	> 100	> 100	> 100	> 100	> 100	> 100	> 100	> 100	> 100	54.6
COc1ccc2c(c1C)C(=O)C(O)(CC=C(C)C)O2 (stereo not given)	> 100	> 100	> 100	> 100	–	> 100	> 100	> 100	> 100	> 100	> 100	> 100	> 100
COc1ccc2c(c1)CC[C@@H]1[C@@H]2CC[C@]2(C)C(=O)/C(=C/c3ccc(OC)c(OC)c3)C[C@@H]12	–	> 100	> 100	> 100	> 100	> 100	> 100	> 100	> 100	> 100	> 100	–	> 100
